# Experimental data taken from US8293464B2, “Methods for reducing the internalization of viruses and identification of compounds effective thereof” (Universiteit Gent, priority 2008, dated 2012).
# Read-outs that look alike come from different tables or passages of the source. Residues, ends and D or L forms follow the SMILES beside them.
# Key:
# [1] = tested on: surface expressed viral antigens in FIPV infected monocytes; assay: Internalization inhibition assay of surface expressed viral antigens (antigen-antibody complexes); format: cell-based, feline; conditions: each inhibitor at its working concentration
# feline monocytes = assay: Internalization assay of control ligands (beads, transferrin or albumin) in monocytes; format: cell-based; conditions: for internalization of a control ligand: control ligand not named
# Description: To test the effectiveness of all reagents, a suitable control was used in each experiment. Monocytes seeded on glass coverslips were pre-incubated for 30 minutes at 37° C. with 5% CO2 in the presence of one of the inhibitors. After treatment, the cells were incubated with biotinylated transferrin (Sigma-Aldrich GmbH) or fluorescent 1 μm polystyrene microspheres, FluoSpheres (Molecular Probes-Invitrogen), in presence of the inhibitor. Then, cells were fixed with 1% formaldehyde and permeabilized with 0.1% Triton X-100. The biotinylated transferrin was visualized by incubating the cells with streptavidin-FITC for 1 hour at 37° C. and cells incubated with fluorescent beads were incubated with phalloidin-Texas Red (Molecular Probes-Invitrogen) for 1 hour at 37° C. to visualize the lamellipodia. The glass coverslips were mounted on microscope slides using glycerin-DABCO and analyzed by confocal microscopy. […] Fluorescent beads were considered internalized when they were found inside the cortical actin labeling.
# FIPV Black (fcwf cells) = assay: Plaque reduction assay, entry of FIPV Black in fcwf cells; format: cell-based, feline infectious peritonitis virus; conditions: FIPV strain Black
# FECV 1863 (CrFK cells) = assay: Plaque reduction assay, entry of FECV 1863 in CrFK cells; format: cell-based, feline enteric coronavirus
# FeHV (CrFK cells) = assay: Plaque reduction assay, entry of feline herpesvirus in CrFK cells; format: cell-based
# protein kinase C = conditions: 50 and 100 μM; cited from earlier work
# FIPV 1146 (CrFK cells) = assay: Plaque reduction assay, entry of FIPV 1146 in CrFK cells; format: cell-based, feline infectious peritonitis virus
# EHV (EEL cells) = assay: Plaque reduction assay, entry of equine herpesvirus in EEL cells; format: cell-based
# hepatitis C virus (HCV) = assay: Single infected cell reduction assay, entry of HCV in Huh7.5 hepatoma cells; format: cell-based, human hepatitis C virus; conditions: 25 μM; Huh7.5 cells
# Description: The single infected cell reduction assay was used to determine the antiviral potency of to ML-7 on the entry of hepatitis C virus (HCV). • 1. Day 1
# Huh7.5 hepatoma cells were seeded in a 96-well plate at 10000 cells/well in 100 μl medium containing 0, 2.5 or 25 μM of ML-7. • 2. Day 2
# Virus was diluted in medium containing the different concentrations of the inhibitor to reach an end concentration of 2,22.10^6 IU/ml. 100 μl of this mixture was added to the wells and the plate was further incubated at 37° C. • 3. Day 6
# The cells were fixed and stained for NS5A (a HCV protein). Then the amount of HCV-positive clusters per well was counted. A cluster is defined as a group of positive cells that is separated from another cluster by at least 1 non-infected cell.
# HSV1 (VERO cells) = assay: Plaque reduction assay, entry of HSV1 in VERO cells; format: cell-based, human herpes simplex virus 1
# [2] = tested on: PRRSV in alveolar macrophage; format: cell-based, Porcine reproductive and respiratory syndrome virus
# [3] = tested on: Porcine respiratory coronavirus (PRCV) in ST cells; assay: Plaque reduction assay, entry of porcine respiratory coronavirus in ST cells; format: cell-based
# PRRSV in MARC cells = assay: Plaque reduction assay, entry of PRRSV in MARC cells; format: cell-based, Porcine reproductive and respiratory syndrome virus
# [4] = tested on: swine influenzavirus in MDCK cells; format: cell-based
# protein kinase A = conditions: 50 and 100 μM; cited from earlier work
# [5] = tested on: PrV infected porcine monocytes; assay: Antibody-induced internalization of PrV viral proteins in porcine monocytes; format: cell-based; conditions: 10 μM
# HIV-1 NL4.3-eGFP = format: cell-based, Human Immunodeficiency Virus 1
# Description: In this experiment the Human Immunodeficiency Virus 1 (HIV-1) strain HIV-1 NL4.3-eGFP which is a lab strain with an eGFP reporter, was used to infect the human T-cell lymphoblatic lymphoma cell line SupT1. The percentage of eGFP positive cells measured at different time point was used as endpoint read out SupT1. ML-7 inhibitor was used at three different concentration: 0 (DMSO), 2,5 and 25 μM.
# SupT1 cells were at a concentration of 20000 cell/well in 200 μl of iMDM medium supplemented with 10% FCS, 1% penicillin/streptomycin and 1% L-glutamine, and were centrifuged at 300 g for 5 min at 4° C. Supernatant was removed and the cells were treated for 30 min with 100 μl of 0 (DMSO at 1/200 dilution in culture medium), 5 and 50 μM ML-7 inhibitor prepared in culture medium at 1/2000 and 1/200 dilution respectively. Meanwhile, HIV-1 NL4.3-eGFP virus was diluted in 10 fold dilution series in a separate plate (starting from 1/5 of stock, put on first well). 100 μl of each virus at every dilution was transferred to the corresponding well of the culture plate treated with the inhibitor. Four hours later approximately 100 μl was transferred to an
# Cells were centrifuged at 300 g for 5 min at 4° C. and approximately 100 μl was collected then stored at −80° C. for p24 measurement. Then 100 μl of cells infected with HIV1-NL4.3-eGFP virus was collected for the determination of the percentage of eGFP positive cells by FACS. Cells were resuspended in 200 μl of medium containing the adequate ML-7 inhibitor concentration. • 3. Day 7
# Cells were treated in the same way as in day 3
# During the course of the experiment cells were monitored carefully by microscopy to check for signs of infection such as: • eGFP expression • Syncytia formation • Cell death Results
# [6] = feline coronaviruses, FIG. 4, 50 and 100 μM
# [7] = feline coronaviruses, FIG. 4, higher concentrations
# [8] = Day 3, 2.5 μM, virus dilution 10X
# [9] = Day 3, 2.5 μM, virus dilution 100X
# [10] = Day 3, 2.5 μM, virus dilution 1000X
# [11] = Day 3, 25 μM, virus dilution 10X
# [12] = Day 3, 25 μM, virus dilution 100X
# [13] = Day 3, 25 μM, virus dilution 1000X
# [14] = Day 7, 2.5 μM, virus dilution 10X
# [15] = Day 7, 2.5 μM, virus dilution 100X
# [16] = Day 7, 2.5 μM, virus dilution 1000X, at or below detection limit
# [17] = Day 7, 25 μM, virus dilution 10X
# [18] = Day 7, 25 μM, virus dilution 100X
# [19] = Day 7, 25 μM, virus dilution 1000X, at or below detection limit
# [20] = inhibitor at working concentration
compound,measurement,setting,value
"COC(=O)[C@@]1(O)C[C@H]2O[C@]1(C)n1c3ccccc3c3c4c(c5c6ccccc6n2c5c31)C(=O)NC4 [K252a, K-252a]",internalization of viral antigens (in words),[1],inhibited
same,"internalization of the control ligand (beads), in words",feline monocytes; 150 nM K-252a,inhibited
O=S(=O)(c1cccc2c(I)cccc12)N1CCCNCC1 [ML-7],effect on the entry process,FIPV Black (fcwf cells),little effect
same,"reduction of entry, % of the control","FECV 1863 (CrFK cells); FECV on CrFK cells, 1,56 μM",73%
same,inhibitory effect on entry at the highest concentrations,FECV 1863 (CrFK cells); [6],inhibitory effect increased rapidly
same,inhibitory effect on entry at higher concentrations,FECV 1863 (CrFK cells); [7],inhibitory effect seemed to be lost again
same,additional effect at high concentration,FeHV (CrFK cells); 100 μM,additional inhibitory effect
same,"plaques, % of the untreated control","FeHV (CrFK cells); 1,56 μM",79 % of the untreated control
same,block of protein kinase C,protein kinase C,can also block
same,"reduction of entry, % of the control","FIPV 1146 (CrFK cells); FIPV on CrFK cells, 3,13 μM",88 % of the control
same,inhibitory effect on entry at the highest concentrations,FIPV 1146 (CrFK cells); [6],inhibitory effect increased rapidly
same,inhibitory effect on entry at higher concentrations,FIPV 1146 (CrFK cells); [7],inhibitory effect seemed to be lost again
same,additional effect at high concentration,EHV (EEL cells); 100 μM,additional inhibitory effect
same,"plaques, % of the untreated control","EHV (EEL cells); 1,56 μM",86 % of the untreated control
same,"amount of infected clusters, % of the untreated control",hepatitis C virus (HCV),31 % of the untreated control
same,internalization of viral antigens,"[1]; 30 min pre-incubation, 30 min with antibodies",12±21 % of untreated control
same,"plaques, % of the untreated control","HSV1 (VERO cells); 1,56 μM",81 % of the untreated control
same,additional effect at high concentration,HSV1 (VERO cells); 25 and 100 μM,additional effect
same,"number of plaques, % of the control","[2]; 0,78 μM",68 % of the control
same,further reduction at the higher concentrations,[2]; higher concentrations,no further reduction
same,"number of plaques, % of the untreated control",[3]; 50 μM,about 40 % of the untreated control
same,"entry (plaque formation), % of the untreated control","[3]; 1,56 μM",68 % of the untreated control
same,inhibitory effect at higher concentrations,[3]; higher concentrations (up to 6 μM),inhibitory effect is lost again
same,effect on entry,PRRSV in MARC cells,activating effect instead of an inhibiting effect
same,"number of plaques, % of the control","[4]; 3,13 μM",76 % of the control
same,further reduction at the higher concentrations,[4]; higher concentrations,no further reduction
same,block of protein kinase A,protein kinase A,can also block
same,antibody-induced internalization of PrV viral proteins,[5],can be inhibited
same,protection from virus mediated cell death,HIV-1 NL4.3-eGFP; 25 μM,protected
same,Percentage of eGFP cells,HIV-1 NL4.3-eGFP; [8],2.98%
same,eGFP cells relative to 0 μM ML-7 (100%),HIV-1 NL4.3-eGFP; [8],(80%)
same,Percentage of eGFP cells,HIV-1 NL4.3-eGFP; [9],0.18%
same,eGFP cells relative to 0 μM ML-7 (100%),HIV-1 NL4.3-eGFP; [9],(46%)
same,Percentage of eGFP cells,HIV-1 NL4.3-eGFP; [10],0.04%
same,eGFP cells relative to 0 μM ML-7 (100%),HIV-1 NL4.3-eGFP; [10],(36%)
same,Percentage of eGFP cells,HIV-1 NL4.3-eGFP; [11],1.52%
same,eGFP cells relative to 0 μM ML-7 (100%),HIV-1 NL4.3-eGFP; [11],(41%)
same,Percentage of eGFP cells,HIV-1 NL4.3-eGFP; [12],0.19%
same,eGFP cells relative to 0 μM ML-7 (100%),HIV-1 NL4.3-eGFP; [12],(49%)
same,Percentage of eGFP cells,HIV-1 NL4.3-eGFP; [13],0.06%
same,eGFP cells relative to 0 μM ML-7 (100%),HIV-1 NL4.3-eGFP; [13],(54%)
same,Percentage of eGFP cells,HIV-1 NL4.3-eGFP; [14],35.8%
same,eGFP cells relative to 0 μM ML-7 (100%),HIV-1 NL4.3-eGFP; [14],(92%)
same,Percentage of eGFP cells,HIV-1 NL4.3-eGFP; [15],18.64%
same,eGFP cells relative to 0 μM ML-7 (100%),HIV-1 NL4.3-eGFP; [15],(44%)
same,Percentage of eGFP cells,HIV-1 NL4.3-eGFP; [16],0.95%
same,eGFP cells relative to 0 μM ML-7 (100%),HIV-1 NL4.3-eGFP; [16],(3160%)°
same,Percentage of eGFP cells,HIV-1 NL4.3-eGFP; [17],1.13%
same,eGFP cells relative to 0 μM ML-7 (100%),HIV-1 NL4.3-eGFP; [17],(3%)
same,Percentage of eGFP cells,HIV-1 NL4.3-eGFP; [18],0.14%
same,eGFP cells relative to 0 μM ML-7 (100%),HIV-1 NL4.3-eGFP; [18],(0.3%)
same,Percentage of eGFP cells,HIV-1 NL4.3-eGFP; [19],0.06%
same,eGFP cells relative to 0 μM ML-7 (100%),HIV-1 NL4.3-eGFP; [19],(200%)
same,inhibition of HIV-1 NL4.3-eGFP infection,HIV-1 NL4.3-eGFP; SupT1 cells,strong inhibition
same,toxic effect on cells,HIV-1 NL4.3-eGFP; SupT1 cells,No toxic effect
same,virus induced syncytia,"HIV-1 NL4.3-eGFP; high concentration, data not shown",inhibited completely
same,protection from virus mediated cell death,HIV-1 NL4.3-eGFP; intermediate inhibitor concentration,mild
same,internalization of the control ligand beads,feline monocytes; [20],11±5 % of untreated control
CC(NC(=O)C(CCCN=C(N)N)NC(=O)C(CCCCN)NC(=O)C(N)CCCN=C(N)N)C(=O)NC(CCCN=C(N)N)C(=O)NC(CCCCN)C(=O)NC(CCC(=O)O)C(=O)O (stereo not shown) [PKG-inhibitor] (H-RKRARKE-OH; configuration not given here),internalization of viral antigens (in words),[1],unaffected
same,internalization of a control ligand,feline monocytes; [20],14±7%
[F-].[Na+] [sodium fluoride],internalization of viral antigens (in words),[1],no reduction
same,internalization of the control ligand transferrin,feline monocytes; [20],46±6 % of the untreated control
CN(C)CCCn1cc(C2=C(c3c[nH]c4ccccc34)C(=O)NC2=O)c2ccccc21 [bisindolylmaleimide I],internalization of viral antigens (in words),[1],unaffected
same,internalization of a control ligand,feline monocytes; [20],25±13%
